Experimental data from PMC10253577, “Conformationally Restricted Glycoconjugates Derived from Arylsulfonamides and Coumarins: New Families of Tumour-Associated Carbonic Anhydrase Inhibitors” (International Journal of Molecular Sciences, 2023).
Like-named read-outs stand apart in the source and are kept apart here. One block for each molecule: values may come before it.

Columns and labels:
hCA IX [1] = molecular target: T1, hCA IX (Homo sapiens, UniProt Q16790); experiment: stopped-flow CO2 hydration assay, hCA IX; conditions: for S.I. I/IX: Ki (CA I)/Ki (CA IX); for S.I. II/IX: Ki (CA II)/Ki (CA IX)
Description: (§3) The panel of CA-directed compounds prepared herein were assessed in vitro against a series of isoforms of human CA with relevant therapeutic interest.
(§4) The choice of such isoforms will provide information about selectivity against tumour-associated CA IX and XII compared to other relevant CAs.
(§5) The inhibitory properties of title compounds against CAs were determined using the stopped-flow CO2 hydrase assay, as previously reported [46].

hCA XII = hCA XII (Homo sapiens, UniProt O43570); experiment: stopped-flow CO2 hydration assay, hCA XII; conditions: for S.I. I/XII: Ki (CA I)/Ki (CA XII); for S.I. II/XII: Ki (CA II)/Ki (CA XII)
Description: as §3, §4, §5

hCA IX [2] = molecular target: T1, hCA IX; design: made in house; conditions: previously reported thioureas; cited from earlier work
hCA II = hCA II (Homo sapiens, UniProt P00918); experiment: stopped-flow CO2 hydration assay, hCA II
Description: as §3, §4, §5

hCA I = hCA I (Homo sapiens, UniProt P00915); experiment: stopped-flow CO2 hydration assay, hCA I
Description: as §3, §4, §5

hCA IV = hCA IV (Homo sapiens, UniProt P22748); experiment: stopped-flow CO2 hydration assay, hCA IV; conditions: mean from three assays, errors ±5–10%
Description: as §3, §4, §5

[3] = test system: panel of six human solid tumour cell lines (A549, HBL-100, HeLa, SW1573, T-47D, WiDr); experiment: antiproliferative assay (NCI protocol), whole panel; type: cell-based
Description: (§1) The compounds prepared herein were subjected to in vitro testing as potential antiproliferative agents against a panel of six human solid tumour cell lines, following minor modifications of the protocol from the US National Cancer Institute (NCI). They can be categorized into two groups: drug-sensitive cell lines (A549, HBL-100, HeLa, SW1573) and multidrug resistant cell lines (T-47D, WiDr). […] Ph-derived thiourea 21e and imidazolidine-2-thione 24f were not included in the study.
(§2) Minor modifications of the US National Cancer Institute (NCI) protocol were used.

HeLa (Cervix) = experiment: antiproliferative assay (NCI protocol), HeLa; type: cell-based; conditions: Homo sapiens, drug-sensitive cell line, mean ± SD
Description: as §1, §2

SW1573 (Lung, Non-Small) = experiment: antiproliferative assay (NCI protocol), SW1573; type: cell-based; conditions: Homo sapiens, drug-sensitive cell line, mean ± SD
Description: as §1, §2

HBL-100 (Breast) = experiment: antiproliferative assay (NCI protocol), HBL-100; type: cell-based; conditions: Homo sapiens, drug-sensitive cell line, mean ± SD
Description: as §1, §2

T-47D (Breast) = experiment: antiproliferative assay (NCI protocol), T-47D; type: cell-based; conditions: Homo sapiens, T47D; multidrug-resistant cell line, mean ± SD
Description: as §1, §2

A549 (Lung, Non-Small) = experiment: antiproliferative assay (NCI protocol), A549; type: cell-based; conditions: Homo sapiens, drug-sensitive cell line, mean ± SD
Description: as §1, §2

WiDr (Colon) = experiment: antiproliferative assay (NCI protocol), WiDr; type: cell-based; conditions: Homo sapiens, multidrug-resistant cell line, mean ± SD
Description: as §1, §2

Sequence of hCA I (P00915 whole entry): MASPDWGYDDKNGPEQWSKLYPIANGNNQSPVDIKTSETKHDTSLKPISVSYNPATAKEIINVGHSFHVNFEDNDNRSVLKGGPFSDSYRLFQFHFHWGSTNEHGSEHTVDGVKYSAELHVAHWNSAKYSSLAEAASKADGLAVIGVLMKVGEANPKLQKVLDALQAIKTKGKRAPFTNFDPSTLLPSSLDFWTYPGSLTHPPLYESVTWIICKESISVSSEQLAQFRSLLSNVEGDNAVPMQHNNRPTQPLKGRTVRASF
Sequence of hCA XII (O43570 25-354): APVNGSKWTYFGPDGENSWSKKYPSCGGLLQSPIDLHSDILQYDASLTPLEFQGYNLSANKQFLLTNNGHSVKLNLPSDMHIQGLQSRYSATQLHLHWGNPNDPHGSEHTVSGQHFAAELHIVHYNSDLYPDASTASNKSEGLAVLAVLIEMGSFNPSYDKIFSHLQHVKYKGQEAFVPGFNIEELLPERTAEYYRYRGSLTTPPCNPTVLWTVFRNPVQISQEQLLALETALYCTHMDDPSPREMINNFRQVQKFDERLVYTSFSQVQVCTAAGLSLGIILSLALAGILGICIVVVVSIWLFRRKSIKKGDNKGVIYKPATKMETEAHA
Sequence of hCA IV (P22748 19-312): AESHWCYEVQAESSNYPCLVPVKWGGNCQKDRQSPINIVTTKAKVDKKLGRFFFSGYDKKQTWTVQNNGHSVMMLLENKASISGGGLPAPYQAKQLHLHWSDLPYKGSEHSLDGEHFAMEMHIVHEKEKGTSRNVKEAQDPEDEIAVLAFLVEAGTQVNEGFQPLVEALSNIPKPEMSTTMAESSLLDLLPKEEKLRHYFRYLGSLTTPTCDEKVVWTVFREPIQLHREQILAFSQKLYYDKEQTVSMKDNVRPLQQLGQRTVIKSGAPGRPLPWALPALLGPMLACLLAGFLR

S.I. I/IX (hCA IX [1]): 977.1
S.I. II/IX (hCA IX [1]): 31.7
S.I. I/XII (hCA XII): 340
S.I. II/XII (hCA XII): 11.0
SMILES: NS(=O)(=O)c1ccc(NC(=S)N[C@@H]2O[C@H](CO)[C@H](O)[C@H](O)[C@H]2O)cc1 [Compound 2a]

S.I. I/IX (hCA IX [1]): 35.1
S.I. II/IX (hCA IX [1]): 126
SMILES: NS(=O)(=O)c1ccc(NC(=S)NC2C(O)OC(CO)C(O)C2O)cc1 (stereo not shown) [Compound 3a]
Ki (hCA IX [2]): 77 nM

Ki (hCA IX [1]): 106 nM
S.I. I/IX (hCA IX [1]): >945
S.I. II/IX (hCA IX [1]): >945
Ki (hCA II): > 100 µM
Ki (hCA I): > 100 µM
Ki (hCA XII): 228 nM
S.I. I/XII (hCA XII): >439
S.I. II/XII (hCA XII): >439
melting point: 165 °C
SMILES: CO[C@H]1O[C@H](CO)[C@@H](O)[C@H](O)[C@H]1NC(=S)NCCCCOc1ccc2c(-c3ccccc3)cc(=O)oc2c1 [Compound 21e, N-(Methyl 2-deoxy-α-D-glucopyranosid-2-yl)-N′-{4′-[7″-(4″-phenyl-2″-oxo-2″H-chromen-7″-yl)oxy]butyl}thiourea]

Ki (hCA IV): 348 nM
SMILES: NS(=O)(=O)c1ccc(N2C(=S)NC3C(O)C(C(O)CO)OC32)cc1 [Compound 8a, 1-(4′-Sulfonamidophenyl)-(1″,2″-dideoxy-α-D-glucofurano)[2,1-d]imidazolidine-2-thione]

Ki (hCA IV): 27300 nM
SMILES: NS(=O)(=O)c1cccc(N2C(=S)NC3C(O)C(C(O)CO)OC32)c1 [Compound 9b, 1-(3′-Sulfonamidophenyl)-(1″,2″-dideoxy-α-D-galactofurano)[2,1-d]imidazolidine-2-thione]

SMILES: NS(=O)(=O)c1cccc(NC(=S)NC2C(O)OC(CO)C(O)C2O)c1 (stereo not shown) [Compound 3b]
Ki (hCA IX [2]): 9 nM

Ki (hCA IV): 1050 nM
SMILES: NS(=O)(=O)c1ccc(CCN2C(=S)NC3C(O)C(C(O)CO)OC32)cc1 [Compound 8c, 1-[2′-(4″-Sulfonamidophenyl)]ethyl-(1‴,2‴-dideoxy-α-D-glucofurano)[2,1-d]imidazolidine-2-thione]

Ki (hCA II): > 100 µM
Ki (hCA I): > 100 µM
SMILES: Cc1cc(=O)oc2cc(OCCCCCCN3C(=S)NC4C(O)C(C(O)CO)OC43)ccc12 [Compound 26, 1-{4′-[7″-(4″-Methyl-2″-oxo-2″H-chromen-7″-yl)oxy]hexyl}-(1‴,2‴-dideoxy-α-D-galactofurano)[2,1-d]imidazolidine-2-thione]

SMILES: O=c1cc(-c2ccccc2)c2ccc(OCCCCCCN3C(=S)N[C@@H]4[C@@H](O)[C@@H]([C@H](O)CO)O[C@@H]43)cc2o1 [Compound 24f, 1-{6′-[7″-(4″-Phenyl-2″-oxo-2″H-chromen-7″-yl)oxy]hexyl}-(1‴,2‴-dideoxy-α-D-glucofurano)[2,1-d]imidazolidine-2-thione]
GI50 ([3]; maximum concentration tested 100 µM, read-out: GI50, all tested cell lines): > 100 µM

Ki (hCA II): > 100 µM
Ki (hCA I): > 100 µM
SMILES: Cc1cc(=O)oc2cc(OCCCCCCN3C(=S)N[C@@H]4[C@@H](O)[C@@H]([C@H](O)CO)O[C@@H]43)ccc12 [Compound 24c, 1-{6′-[7″-(4″-Methyl-2″-oxo-2″H-chromen-7″-yl)oxy]hexyl}-(1‴,2‴-dideoxy-α-D-glucofurano)[2,1-d]imidazolidine-2-thione]

Ki (hCA IV): 4570 nM
SMILES: NS(=O)(=O)c1ccc(N2C(=S)NC3C(O)C(C(O)CO)OC32)cc1 [Compound 9a, 1-(4′-Sulfonamidophenyl)-(1″,2″-dideoxy-α-D-galactofurano)[2,1-d]imidazolidine-2-thione]

S.I. I/IX (hCA IX [1]): 48.6
S.I. II/IX (hCA IX [1]): 104
SMILES: NS(=O)(=O)c1ccc(NC(=S)N[C@H]2C(O)O[C@H](CO)[C@H](O)[C@@H]2O)cc1 (stereo partly shown) [Compound 4a]
Ki (hCA IX [2]): 74 nM

S.I. I/IX (hCA IX [1]): 1.0
S.I. II/IX (hCA IX [1]): 12.4
S.I. I/XII (hCA XII): 0.9
S.I. II/XII (hCA XII): 11.1
SMILES: NS(=O)(=O)c1ccc(CCNC(=S)N[C@@H]2O[C@H](CO)[C@@H](O)[C@H](O)[C@H]2O)cc1 [Compound 1c]

S.I. I/IX (hCA IX [1]): 27.2
S.I. II/IX (hCA IX [1]): 0.02
S.I. I/XII (hCA XII): 937
S.I. II/XII (hCA XII): 0.9
SMILES: NS(=O)(=O)c1ccc(NC(=S)N[C@@H]2O[C@H](CO)[C@@H](O)[C@H](O)[C@H]2O)cc1 [Compound 1a]

Ki (hCA IX [1]): 116 nM
S.I. I/IX (hCA IX [1]): >858
S.I. II/IX (hCA IX [1]): 148
Ki (hCA II): 17.3 µM
Ki (hCA I): > 100 µM
Ki (hCA XII): 164 nM
S.I. I/XII (hCA XII): >610
S.I. II/XII (hCA XII): 106
melting point: 148 °C
SMILES: CO[C@H]1O[C@H](CO)[C@@H](O)[C@H](O)[C@H]1NC(=S)NCCCCCCOc1ccc2c(-c3ccccc3)cc(=O)oc2c1 [Compound 21f, N′-(Methyl 2-deoxy-α-D-glucopyranosid-2-yl)-N′-{6′-[7″-(4″-phenyl-2″-oxo-2″H-chromen-7″-yl)oxy]hexyl}thiourea]
GI50 (HeLa (Cervix)): 25 ± 8 µM
GI50 (SW1573 (Lung, Non-Small)): 9.7 µM
GI50 (HBL-100 (Breast)): 23 ± 3.2 µM
GI50 (T-47D (Breast)): 30 ± 7.4 µM
GI50 (A549 (Lung, Non-Small)): 34 ± 4 µM
GI50 ([3]; the five cell lines other than SW1573, read-out: GI50, other five lines): 23 to 36 µM
GI50 (WiDr (Colon)): 36 ± 16 µM

SMILES: CO[C@H]1O[C@H](CO)[C@@H](O)[C@H](O)[C@H]1NC(=S)Nc1ccc2c(C)cc(=O)oc2c1 [Compound C00016]
GI50 (HeLa (Cervix)): 83 ± 30 µM
GI50 (SW1573 (Lung, Non-Small)): 79 ± 37 µM
GI50 (HBL-100 (Breast)): 86 ± 25 µM
GI50 (T-47D (Breast)): > 100 µM
GI50 (A549 (Lung, Non-Small)): 79 ± 36 µM
GI50 (WiDr (Colon)): > 100 µM

Ki (hCA IV): 45.1 nM
SMILES: NS(=O)(=O)c1cccc(N2C(=S)NC3C(O)C(C(O)CO)OC32)c1 [Compound 8b, 1-(3′-Sulfonamidophenyl)-(1″,2″-dideoxy-α-D-glucofurano)[2,1-d]imidazolidine-2-thione]

S.I. I/IX (hCA IX [1]): 102.4
S.I. II/IX (hCA IX [1]): 22.4
SMILES: NS(=O)(=O)c1cccc(NC(=S)N[C@H]2C(O)O[C@H](CO)[C@H](O)[C@@H]2O)c1 (stereo partly shown) [Compound 4b]
Ki (hCA IX [2]): 42 nM

S.I. I/IX (hCA IX [1]): 2067.9
S.I. II/IX (hCA IX [1]): 3.3
S.I. I/XII (hCA XII): 568
S.I. II/XII (hCA XII): 0.9
SMILES: NS(=O)(=O)c1ccc(CCNC(=S)N[C@@H]2O[C@H](CO)[C@H](O)[C@H](O)[C@H]2O)cc1 [Compound 2c]

SMILES: O=c1cc(-c2ccccc2)c2ccc(OCCCCN3C(=S)N[C@@H]4[C@@H](O)[C@@H]([C@H](O)CO)O[C@@H]43)cc2o1 [Compound 24e, 1-{4′-[7″-(4″-Phenyl-2″-oxo-2″H-chromen-7″-yl)oxy]butyl}-(1‴,2‴-dideoxy-α-D-glucofurano)[2,1-d]imidazolidine-2-thione]
GI50 (HeLa (Cervix)): 31 ± 0.2 µM
GI50 (SW1573 (Lung, Non-Small)): 5.7 ± 1.8 µM
GI50 (HBL-100 (Breast)): 23 ± 0.8 µM
GI50 (T-47D (Breast)): 70 ± 23 µM
GI50 (A549 (Lung, Non-Small)): 64 ± 31 µM
GI50 (WiDr (Colon)): 47 ± 11 µM
